The test system of data set [1] is Staphylococcus aureus. Nature of the data set: Minimum inhibitory concentration. Particulars: read-out: Minimum inhibitory concentration.
In data set [2] the test system is Piricularia oryzae. Nature of the data set: microbe, parasite or virus in culture. It counts as cell-based. Particulars: read-out: Minimum inhibitory concentration.
A short description of data set [3]: Toxicity (LD50), mice, orally. Particulars: mouse, in vivo, po.
Data set [4] is described as follows: Solubility.
In data set [5] the test system is Escherichia coli. Description: Minimum inhibitory concentration. Particulars: read-out: Minimum inhibitory concentration.
Data set [6] deals with Bacillus subtilis. Description: Minimum inhibitory concentration. Particulars: read-out: Minimum inhibitory concentration.
Data set [7] deals with Mycobacterium smegmatis. Nature of the data set: Minimum inhibitory concentration. Particulars: Mycolicibacterium smegmatis, read-out: Minimum inhibitory concentration.
Description: (§1) In the Table, N indicates Nutrient agar medium, GN Glycerine nutrient medium and PS Potato-sucrose agar medium.
GN: 4% glycerol nutrient agar
The nature of data set [8]: Stability. Particulars: Na salt.
Data set [9] concerns Micrococcus luteus. Nature of the data set: Minimum inhibitory concentration. Particulars: read-out: Minimum inhibitory concentration.
Description: as §1
For data set [10], the system named is Psendomonas aeruginosa. Nature of the data set: Minimum inhibitory concentration. Particulars: read-out: Minimum inhibitory concentration.
Data set [11] deals with Micrococcus flavus. Nature of the data set: Minimum inhibitory concentration. Particulars: read-out: Minimum inhibitory concentration.
For data set [12], the system named is Bacillus megaterium. Description: Minimum inhibitory concentration. Particulars: Priestia megaterium, read-out: Minimum inhibitory concentration.
Data set [13] deals with Bacillus circulans. Nature of the data set: Minimum inhibitory concentration. Particulars: Paenibacillus illinoisensis, read-out: Minimum inhibitory concentration.
The subject of data set [14] is Proteus vulgaris. Nature of the data set: Minimum inhibitory concentration. Particulars: read-out: Minimum inhibitory concentration.
Data set [15] deals with Mycobacterium phlei. Nature of the data set: Minimum inhibitory concentration. Particulars: Mycolicibacterium phlei, read-out: Minimum inhibitory concentration.
Description: as §1
GN: 4% glycerol nutrient agar
Data set [16] deals with Alternaria kikuchiana. Description: Minimum inhibitory concentration. It counts as cell-based. Particulars: PS: potato-sucrose agar, Na salt.
The subject of data set [17] is Mycobacterium avium. Description: Minimum inhibitory concentration. Particulars: read-out: Minimum inhibitory concentration.
Description: as §1
GN: 4% glycerol nutrient agar
The subject of data set [18] is Klebsiella pneumoniae. Description: Minimum inhibitory concentration. Particulars: read-out: Minimum inhibitory concentration.
For data set [19], the system named is Staphylococcus epidermidis. Nature of the data set: Minimum inhibitory concentration. Particulars: read-out: Minimum inhibitory concentration.

Values after ≈ are worked out from the molar mass of the structure shown.

Take `CCC(C(=O)O)C1CCC(C)C(C(C)C(O)C(C)C(=O)C(CC)C2OC3(C=CCC4(CCC(C)(C5CCC(O)(CC)C(C)O5)O4)O3)C(C)CC2C)O1` (stereo not shown) [SY-1 substance]: the MIC in data set [1] is 100 mg/L (≈ 136 µM); in [2] it was over 100 mg/L; in data set [5], over 100 mg/L; in [6] it was 100 mg/L (≈ 136 µM); in data set [7] it was over 100 mg/L; in data set [9], 100 mg/L (≈ 136 µM). The MIC in data set [10] was over 100 mg/L; in [11], 100 mg/L (≈ 136 µM); in data set [12], 50 mg/L (≈ 68 µM); in data set [13] it was 12.5 mg/L (≈ 17 µM); in data set [14], over 100 mg/L; in [15], over 100 mg/L. Besides, the MIC in [16] was over 100 mg/L; in [17] it was over 100 mg/L; in data set [18] it was over 100 mg/L; in data set [19] it was 50 mg/L (≈ 68 µM). Also, the LD50 in [3] was 51 mg/kg. Also, the “Solubility in organic solvents” value in data set [4] (alcohols, acetates, chloroform, ether, carbon tetrachloride, benzene and n-hexane, Na salt) is “soluble”. In addition, in data set [4] (general statement for isolation by solvent extraction), the “Solubility in various organic solvents” value was “soluble in various organic solvents”. Moreover, the Solubility in water entry in data set [4] (water, Na salt) is recorded as “insoluble in water”. The figures for the Stability entry in [8] (pH 7-9) and in data set [8] (pH lower than 6) were “stable in pH 7-9” and “unstable in pH lower than 6”, respectively.

Usually LD50 stands for the dose at which mortality reaches 50%.

These data come from patent publication US4138496A, “SY-1 substance” (Kaken Chemical Co., Ltd., priority 1977, dated 1979).
